One data set concerns the target PDE7A (Homo sapiens, UniProt Q13946). As to the kind of experiment: cAMP response in yeast strain expressing PDE7A. The conditions noted are these: PDE 7A; relative to BRL50481. Set-up: targets used in the assays are full-length proteins (as opposed to simply the catalytic domain); expressed in transfected cells; host or cells: Schizosaccharomyces pombe, PDE gene integrated in place of cgs2. Type of data set: cell-based.

For data set [1], the system named is PDE4A, PDE4B, PDE4D, PDE7A, PDE7B, PDE8A, PDE3A. As to the kind of experiment: Summary of PDE inhibitor profile. More on the design: key: (1): Weak PDE7A inhibitor; (2): Strong PDE7A inhibitor; (3): Lillte/no activity under conditions used; (4): Weak PDE4A inhibitor. The conditions noted are these: overall classification, Table 18 footnotes.
The next data set relates to Jurkat cells. As to the kind of experiment: IL2 secretion by concanavalin A treated Jurkat cells. To be noted: ConA 10 μg/ml, prostaglandin E2, 24 hours. Type of data set: cell-based, human. An excerpt: Jurkat cells, a human T cell lymphoblast-like cell line, increase expression of the cytokine IL2 in response to stimulation by concanavalin A (conA). This effect can be inhibited by elevated cAMP levels, although PDE4 inhibition alone appears to be insufficient to prevent IL2 induction (Kaminuma et al., Immunopharmacology, 1998 January; 38(3):247-52). However, the anti-inflammatory effect of PDE4 inhibitors can be detected using this assay by their ability to enhance the reduction of IL2 secretion by prostaglandin E2. IL2 levels are measured in Jurkat cells (5×10^5 cells/ml) stimulated by 10 μg/ml ConA in the presence of prostaglandin E2, with or without each test compound ([…]). After incubation at 37° C. for 24 hours, the resulting supernatant were collected and kept frozen at −70° C. until the time of assay. IL2 in the supernatants were measured by ELISA and the data is presented as a percentage of the PGE2 treated culture (FIG. 12).

For data set [2], the target named is T1, PDE7B (Rattus norvegicus, UniProt A0A0G2JXU0).
T1 construct: endogenous in cells; host or cells: rat pulmonary endothelial cells (extract)
T1 sequence (A0A0G2JXU0 1-446): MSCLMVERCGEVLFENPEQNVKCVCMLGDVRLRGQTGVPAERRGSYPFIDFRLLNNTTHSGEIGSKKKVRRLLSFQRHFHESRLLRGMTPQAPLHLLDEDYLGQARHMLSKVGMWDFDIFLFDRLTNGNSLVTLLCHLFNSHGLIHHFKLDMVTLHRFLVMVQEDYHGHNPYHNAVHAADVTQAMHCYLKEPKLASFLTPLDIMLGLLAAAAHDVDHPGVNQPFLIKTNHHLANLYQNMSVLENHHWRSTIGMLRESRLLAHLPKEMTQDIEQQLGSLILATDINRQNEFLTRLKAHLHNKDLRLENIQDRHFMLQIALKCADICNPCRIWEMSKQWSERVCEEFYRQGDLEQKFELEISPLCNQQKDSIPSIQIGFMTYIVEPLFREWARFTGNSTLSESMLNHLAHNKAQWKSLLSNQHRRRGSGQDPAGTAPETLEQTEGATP
As to the kind of experiment: in vitro enzyme assay of PDE7B activity in extracts from rat pulmonary endothelial cells. Type of data set: biochemical. The source says:
FIG. 13 is the in vitro enzyme assays of PDE7B activity in extracts made from rat pulmonary endothelial cells.

The target of data set [3] is PDE7B (Homo sapiens, UniProt Q9NP56). As to the kind of experiment: cAMP elevation in yeast PDE7B-expressing strain. Type of data set: cell-based. Set-up: targets used in the assays are full-length proteins (as opposed to simply the catalytic domain); expressed in transfected cells; host or cells: Schizosaccharomyces pombe.
The test system of data set [4] is PDE4A, PDE4B, PDE4D, PDE7A, PDE7B, PDE8A, PDE3A. As to the kind of experiment: Summary of PDE inhibitor profile.
The next data set relates to U937 cells. Put plainly: TNF alpha release by LPS-treated U937 cells. Type of data set: cell-based.
A further data set has as its system Lymphoma cells. Put plainly: in vitro assay on lymphoma cells (24 hours, Hoechst stain, fsc/ssc). In kind it is cell-based. As for the experimental part:
FIGS. 6A and 6B show the in vitro assay of BC54 action. Lymphoma cells are treated with the drug for 24 hours, then stained with Hoechst dye. The cells form a clearly defined population on the fsc/ssc dot plot. Vincristine treatment was used as a positive control. […] BC54 is referred to in the figure as S54.

In another data set the test system is PBMC cells. Put plainly: proliferation and viability of PBMC cells. In kind it is cell-based. The source says: FIGS. 8A, 8B and 8C show the effect of BC54 on the proliferation and viability of PBMC cells.
Data set [5] deals with transplanted tumors (lymphomas). As to the kind of experiment: in vivo assay in mice with transplanted tumors (lymphomas). As for the experimental part: FIGS. 7A and 7B show results of an in vivo assay of BC54 action.
A 7 day experiment was conducted to determine the effect of BC54 on mice having transplanted tumors (lymphomas). Drugs were given i.p. once a day in 60-100 ul of PBS. • 3 animals got just BC54—to assess toxicity • 3 animals injected with lymphoma and treated with BC54 • 3 animals—no treatment • 1 animal—CHOP 0.5 MTD
BC54 dose was 3 ul of 100 mM solution per mouse per injection. […]. […] After 7 days, the untreated mice were terminally ill. The group treated with BC54 looked better although they do show some clinical signs (hunched posture etc). […] Tumor load was evaluated in the spleen and in the peritoneal lymph nodes (FIG. 7).

Another data set relates to CLL. As to the kind of experiment: CLL assay. In kind it is cell-based.
For the next data set, the system named is SIVmac239. As to the kind of experiment: antiviral activity, SIV p27 ELISA in infected PBMC. In kind it is cell-based, rhesus macaques. To be noted: for reduction in viral load: treatment on Day 1 and Day 3, SIV p27 ELISA. As to the method: PBMC cells were isolated from uninfected rhesus macaques and mitogen stimulated (PHA). The cells were then incubated with SIVmac239 for 2 hours, following which they were washed to remove any free virus. BC54 was then added to the infected cells. Fresh compound was added after 3 days. The antiviral activity was measured by SIV p27 ELISA on day 3 and 7, while the cell viability was determined on day 7 by MTT assay. The treatment of cells on Day 1 and Day 3, leads to a 30-fold and 100-fold reduction in viral load on Days 4 and 7, respectively.

Structures are written as SMILES. Several values for one entry are separate records, joined by “and”; a condition that tells them apart may be missing. Identical values can stand only once. Entries after “also recorded” stand apart in the source; their conditions may differ.

Chain of PDE7A (Q13946 whole entry, the tested form may be a part): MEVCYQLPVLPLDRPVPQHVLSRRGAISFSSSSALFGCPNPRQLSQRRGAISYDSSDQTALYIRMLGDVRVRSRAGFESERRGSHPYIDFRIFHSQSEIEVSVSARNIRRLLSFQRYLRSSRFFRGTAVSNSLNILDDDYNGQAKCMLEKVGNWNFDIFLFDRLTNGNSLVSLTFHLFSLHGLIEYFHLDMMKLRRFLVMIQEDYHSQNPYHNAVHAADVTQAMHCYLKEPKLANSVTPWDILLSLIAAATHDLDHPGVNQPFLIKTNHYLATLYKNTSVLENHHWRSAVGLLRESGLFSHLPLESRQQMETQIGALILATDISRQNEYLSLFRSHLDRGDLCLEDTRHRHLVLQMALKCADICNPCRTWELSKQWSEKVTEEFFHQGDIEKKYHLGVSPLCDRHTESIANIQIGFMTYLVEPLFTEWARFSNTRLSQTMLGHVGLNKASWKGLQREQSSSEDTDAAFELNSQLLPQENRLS
Chain of PDE7B (Homo sapiens, UniProt Q9NP56) (Q9NP56 whole entry, species assumed, the tested form may be a part): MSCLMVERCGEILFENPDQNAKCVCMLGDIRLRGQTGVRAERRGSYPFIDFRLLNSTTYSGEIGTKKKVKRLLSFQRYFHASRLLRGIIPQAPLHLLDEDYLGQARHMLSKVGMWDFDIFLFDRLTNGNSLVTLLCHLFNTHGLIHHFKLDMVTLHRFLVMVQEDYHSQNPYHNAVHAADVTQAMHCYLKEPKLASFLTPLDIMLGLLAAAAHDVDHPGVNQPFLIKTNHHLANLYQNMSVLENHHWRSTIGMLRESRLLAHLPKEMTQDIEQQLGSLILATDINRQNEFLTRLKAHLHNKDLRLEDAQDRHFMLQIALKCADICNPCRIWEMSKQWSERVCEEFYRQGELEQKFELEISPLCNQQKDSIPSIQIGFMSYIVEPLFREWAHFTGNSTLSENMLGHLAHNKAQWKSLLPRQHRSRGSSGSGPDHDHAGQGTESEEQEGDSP

Regarding `COc1ccc2c(c1)C1(C)CCC(=O)CC1CC2` (single isomer, unassigned) [Compound 11], the “cAMP Response (% BRL50481) 7A” value at PDE7A came out at 89.00 % BRL50481. For the same compound, the “PDE inhibitor profile (Table 18)” value in [1] was 11 (3).

As for `Cc1sc2ncnc(NC3CCCCC3)c2c1C` [BC28], in the data set with Jurkat cells, the “IL2 expression from Jurkat cells, in words” value is “strong reduction”. Further, the “KI lower than that of BRL50481” value at PDE7B [2] (PDE7B, rat pulmonary endothelial cell extracts) is recorded as “approximately 100 fold”. For the same compound, the Ki at PDE7B [2] (cell extracts, read-out: KI on PDE7 (PDE7B) from rat pulmonary endothelial cells) was ~200 nM and 200 nM. The “cAMP in yeast PDE7B-expressing strain, in words” value on PDE7B [3] is given as “induced cAMP elevation”. The “PDE inhibitor profile, in words” value in [4] is given as “potent PDE7B inhibitor”. Also, the “TNF alpha reduction, conclusion in words” value in the data set on U937 cells is “TNFα synergy with PDE4 inhibitors, though not as strong as for BC30”.

As to `CCOC(=O)c1cc2c(=O)n3ccccc3nc2n(C2CCCCC2)/c1=N/C(C)=O` [BC54], the “apoptosis of lymphoma cells, in words” value in the data set on Lymphoma cells is listed as “induces apoptosis”. In addition, the “"live" population gone” value in the data set on Lymphoma cells (24 hours treatment) is recorded as about 100%. In [4], the “PDE inhibitor profile, in words” value was “good PDE4 and PDE7 combination inhibitor; also recorded: affects PDE4D, but is weaker than on other 4 s and 7 s”; the “effect on PDE8A or PDE3A” value is on record as “no effect”. Also, the “toxicity to PBMC cells (proliferation and viability)” value in the data set with PBMC cells is “not found to be very toxic”. The toxicity in mice result in data set [5] (3 ul of 100 mM solution per mouse per injection, i.p. once a day) is listed as “no major signs of toxicity”. For the same compound, in [5] (i.p. once a day, 7 days), the spleen tumor burden result was “No significant effect” and the “tumor load in lymph nodes” value is on record as “reduces the tumor load in lymph nodes”. Also, the “clinical appearance after 7 days” value in data set [5] (lymphoma-bearing mice) is listed as “looked better”. Further, the “efficacy in mouse DLBCL model, in words” value in [5] (mouse, in vivo) was “effective”. Also, the “activity in CLL assay, in words” value in the data set with CLL is given as “good activity”. Also, the “efficacy in SIV cell culture, in words” value with SIVmac239 is “effective”. Further, the “reduction in viral load” value in the data set on SIVmac239 (Day 4) amounted to 30 fold. In addition, the “reduction in viral load” value in the data set on SIVmac239 (Day 7) is 100 fold. Further, in the data set on U937 cells, the “TNF alpha reduction, conclusion in words” value is listed as “good activity”.

The values are drawn from patent publication US20100227853A1, “INHIBITORS OF CYCLIC AMP PHOSPHODIESTERASES” (Trustees of Boston College, priority 2008, published 2010).
